Source: US20160199436A1, “METHODS AND COMPOSITIONS FOR THE TREATMENT OF AMYOTROPHIC LATERAL SCLEROSIS” (University of Iowa Research Foudation, priority 2015, published 2016)
Entries after “also recorded” stand apart in the source; their conditions may differ.

What was measured:
SOD1 mice [1] = assay: Survival of SOD1 mice (ALS model), Kaplan Meier; type: in vivo, mouse
Description: (§1) In this Example, SOD1 mice, a known and accepted model of amyotrophic lateral sclerosis (ALS), were used to assess the effects of angiotensin (1-7) peptides, here TXA127 (SEQ ID NO: 1), on survival and quality of life over time. The SOD1 mouse line are known to contain a G93A mutation in their superoxide dismutase 1 (SOD1) gene, and this mutation leads to a phenotype very similar to the phenotype of a human ALS sufferer.
(§2) A total of 70 mice were used in this study, 40 SOD1 mice and 30 wild type C57BL/6J mice (all were obtained from the Jackson Laboratories). Mice were three weeks old at the beginning of the study, and osmotic minipumps were implanted in each animal. After implantation, each animal was exposed to either 500 μg/kg/day TXA127 (SEQ ID NO: 1) or saline vehicle for up to 8 weeks. After 8 weeks, surviving mice received a daily injection of either 500 μg/kg TXA127 (SEQ ID NO: 1) or vehicle.

SOD1 mice [2] = assay: ALS score (disease progression/quality of life) in SOD1 mice; type: in vivo, mouse
Description: as §1, §2
In addition to survival, disease progression/quality of life was measured over time using the rating scale described above. […] FIG. 3 further describes this effect, by showing the percentage of animals in each SOD1 group that were rated as having an ALS score of 2 or less over time.

[3] = 500 μg/kg/day TXA127 vs SOD1-vehicle, up to 30 weeks

Substance: Asp^1-Arg^2-Val^3-Tyr^4-Ile^5-His^6-Pro^7 [TXA127]
- effect on survival (in words) (SOD1 mice [1]; 500 μg/kg/day TXA127): powerful survival benefit; also recorded: significant effect on survival
- extension of life (median) versus vehicle treated SOD1 mice (SOD1 mice [1]; 500 μg/kg/day TXA127): 30 days
- median survival (SOD1 mice [1]; 500 μg/kg/day TXA127 by osmotic minipump up to 8 weeks, then daily injection): 164 days
- disease progression (summary in words) (SOD1 mice [2]; 500 μg/kg/day TXA127): delays disease progression
- percentage of animals with an ALS score of 2 or less over time (FIG. 3) (SOD1 mice [2]; [3]): clearly delayed the worsening of symptoms, often by several weeks
- sum of ALS scores over time (FIG. 2) (SOD1 mice [2]; [3]): significantly delaying worsening of symptoms
